Reference: the NIST ThermoML archive (doi:10.1021/je060271a)
Numbers after ± are expanded uncertainties.

Settings: 303.15 K, Liquid, Vibrating tube method

`CCCCC(=O)OCC(COC(=O)CCCC)(COC(=O)CCCC)COC(=O)CCCC` [pentaerythritol tetrapentanoate] gave a mass density (1387.7 kPa) of 1011.7 ± 1.2 kg/m3, a mass density (1391.5 kPa) of 1011.7 ± 1.2 kg/m3 and a mass density (1395 kPa) of 1011.6 ± 1.2 kg/m3. The mass density (1398.3 kPa) was 1011.8 ± 1.2 kg/m3, the mass density (1401.8 kPa) was 1011.7 ± 1.2 kg/m3 and the mass density (1405.8 kPa) was 1011.7 ± 1.2 kg/m3. For the same compound, the mass density (1409.2 kPa) was 1011.8 ± 1.2 kg/m3, the mass density (1413.1 kPa) was 1011.7 ± 1.2 kg/m3 and the mass density (1416.4 kPa) was 1011.8 ± 1.2 kg/m3. The mass density (1419.7 kPa) was 1011.8 ± 1.2 kg/m3, the mass density (1423.1 kPa) was 1011.7 ± 1.2 kg/m3 and the mass density (1427 kPa) was 1011.8 ± 1.2 kg/m3. The mass density (1430.8 kPa) was 1011.8 ± 1.2 kg/m3, the mass density (1434.2 kPa) was 1011.9 ± 1.2 kg/m3 and the mass density (1437.9 kPa) was 1011.6 ± 1.2 kg/m3. For the same compound, the mass density (1441.9 kPa) was 1011.8 ± 1.2 kg/m3, the mass density (1445.5 kPa) was 1011.7 ± 1.2 kg/m3 and the mass density (1449 kPa) was 1011.8 ± 1.2 kg/m3. For the same compound, the mass density (1453.3 kPa) was 1011.8 ± 1.2 kg/m3, the mass density (1456.6 kPa) was 1011.8 ± 1.2 kg/m3 and the mass density (1460.5 kPa) was 1011.7 ± 1.2 kg/m3. It also gave a mass density (1464.6 kPa) of 1011.9 ± 1.2 kg/m3, a mass density (1467.9 kPa) of 1011.8 ± 1.2 kg/m3 and a mass density (1471.8 kPa) of 1011.8 ± 1.2 kg/m3. It also gave a mass density (1475.9 kPa) of 1011.8 ± 1.2 kg/m3, a mass density (1479.9 kPa) of 1011.8 ± 1.2 kg/m3 and a mass density (1483.5 kPa) of 1011.8 ± 1.2 kg/m3. The mass density (1487 kPa) was 1011.7 ± 1.2 kg/m3, the mass density (1491.7 kPa) was 1011.8 ± 1.2 kg/m3 and the mass density (1495.5 kPa) was 1011.9 ± 1.2 kg/m3. The mass density (1499.2 kPa) was 1011.8 ± 1.2 kg/m3, the mass density (1503.7 kPa) was 1011.9 ± 1.2 kg/m3 and the mass density (1507.5 kPa) was 1011.7 ± 1.2 kg/m3. For the same compound, the mass density (1511.2 kPa) was 1011.8 ± 1.2 kg/m3, the mass density (1515 kPa) was 1011.7 ± 1.2 kg/m3 and the mass density (1519.8 kPa) was 1011.7 ± 1.2 kg/m3. The mass density (1523.7 kPa) was 1011.8 ± 1.2 kg/m3, the mass density (1527.3 kPa) was 1011.8 ± 1.2 kg/m3 and the mass density (1532.2 kPa) was 1011.8 ± 1.2 kg/m3. For the same compound, the mass density (1536 kPa) was 1011.7 ± 1.2 kg/m3, the mass density (1540 kPa) was 1011.8 ± 1.2 kg/m3 and the mass density (1544.5 kPa) was 1011.8 ± 1.2 kg/m3. The mass density (1548.8 kPa) was 1011.7 ± 1.2 kg/m3, the mass density (1552.7 kPa) was 1011.8 ± 1.2 kg/m3 and the mass density (1556.3 kPa) was 1011.9 ± 1.2 kg/m3. It also gave a mass density (1561.3 kPa) of 1011.9 ± 1.2 kg/m3, a mass density (1565.3 kPa) of 1011.8 ± 1.2 kg/m3 and a mass density (1569.5 kPa) of 1011.8 ± 1.2 kg/m3. The mass density (1573.5 kPa) was 1011.9 ± 1.2 kg/m3, the mass density (1577.5 kPa) was 1011.9 ± 1.2 kg/m3 and the mass density (1581.8 kPa) was 1011.9 ± 1.2 kg/m3. The mass density (1585.8 kPa) was 1011.8 ± 1.2 kg/m3, the mass density (1590.8 kPa) was 1011.9 ± 1.2 kg/m3 and the mass density (1595 kPa) was 1011.8 ± 1.2 kg/m3. For the same compound, the mass density (1599 kPa) was 1011.9 ± 1.2 kg/m3, the mass density (1604.2 kPa) was 1011.9 ± 1.2 kg/m3 and the mass density (1608.2 kPa) was 1011.9 ± 1.2 kg/m3. For the same compound, the mass density (1612.5 kPa) was 1011.9 ± 1.2 kg/m3, the mass density (1617.8 kPa) was 1012 ± 1.2 kg/m3 and the mass density (1621.9 kPa) was 1011.9 ± 1.2 kg/m3. The mass density (1626.6 kPa) was 1011.9 ± 1.2 kg/m3, the mass density (1630.8 kPa) was 1011.8 ± 1.2 kg/m3 and the mass density (1635 kPa) was 1011.9 ± 1.2 kg/m3. It also gave a mass density (1640 kPa) of 1012 ± 1.2 kg/m3, a mass density (1644.2 kPa) of 1012 ± 1.2 kg/m3 and a mass density (1648.7 kPa) of 1011.8 ± 1.2 kg/m3. For the same compound, the mass density (1653.9 kPa) was 1012.1 ± 1.2 kg/m3, the mass density (1658.9 kPa) was 1011.8 ± 1.2 kg/m3 and the mass density (1663.4 kPa) was 1011.9 ± 1.2 kg/m3. For the same compound, the mass density (1668.6 kPa) was 1011.9 ± 1.2 kg/m3, the mass density (1673.2 kPa) was 1011.8 ± 1.2 kg/m3 and the mass density (1677.7 kPa) was 1011.8 ± 1.2 kg/m3. The mass density (1683.2 kPa) was 1011.9 ± 1.2 kg/m3, the mass density (1687.7 kPa) was 1012.1 ± 1.2 kg/m3 and the mass density (1692.6 kPa) was 1012 ± 1.2 kg/m3. It also gave a mass density (1697.3 kPa) of 1011.9 ± 1.2 kg/m3, a mass density (1703 kPa) of 1011.9 ± 1.2 kg/m3 and a mass density (1707.7 kPa) of 1012 ± 1.2 kg/m3. The mass density (1712 kPa) was 1011.9 ± 1.2 kg/m3, the mass density (1717.8 kPa) was 1011.9 ± 1.2 kg/m3 and the mass density (1722.5 kPa) was 1011.9 ± 1.2 kg/m3. It also gave a mass density (1727.3 kPa) of 1012 ± 1.2 kg/m3, a mass density (1732.9 kPa) of 1011.9 ± 1.2 kg/m3 and a mass density (1737.7 kPa) of 1012.1 ± 1.2 kg/m3. It also gave a mass density (1742.9 kPa) of 1012.1 ± 1.2 kg/m3, a mass density (1747.8 kPa) of 1012 ± 1.2 kg/m3 and a mass density (1753.7 kPa) of 1011.9 ± 1.2 kg/m3. The mass density (1758.4 kPa) was 1012 ± 1.2 kg/m3, the mass density (1763.8 kPa) was 1012 ± 1.2 kg/m3 and the mass density (1768.6 kPa) was 1012 ± 1.2 kg/m3. For the same compound, the mass density (1774.7 kPa) was 1011.9 ± 1.2 kg/m3, the mass density (1779.9 kPa) was 1012.1 ± 1.2 kg/m3 and the mass density (1784.9 kPa) was 1012 ± 1.2 kg/m3. For the same compound, the mass density (1791 kPa) was 1011.9 ± 1.2 kg/m3, the mass density (1796 kPa) was 1012 ± 1.2 kg/m3 and the mass density (1800.9 kPa) was 1012.1 ± 1.2 kg/m3. The mass density (1807.3 kPa) was 1012 ± 1.2 kg/m3, the mass density (1812.5 kPa) was 1012 ± 1.2 kg/m3 and the mass density (1817.6 kPa) was 1012.1 ± 1.2 kg/m3. The mass density (1824 kPa) was 1011.9 ± 1.2 kg/m3, the mass density (1829.5 kPa) was 1012.1 ± 1.2 kg/m3 and the mass density (1834.9 kPa) was 1012 ± 1.2 kg/m3. It also gave a mass density (1840.1 kPa) of 1012 ± 1.2 kg/m3, a mass density (1846.6 kPa) of 1012 ± 1.2 kg/m3 and a mass density (1852.1 kPa) of 1012 ± 1.2 kg/m3. For the same compound, the mass density (1857.5 kPa) was 1012 ± 1.2 kg/m3, the mass density (1862.9 kPa) was 1012 ± 1.2 kg/m3 and the mass density (1869.5 kPa) was 1012.1 ± 1.2 kg/m3. It also gave a mass density (1874.8 kPa) of 1012.1 ± 1.2 kg/m3, a mass density (1881.8 kPa) of 1012 ± 1.2 kg/m3 and a mass density (1887 kPa) of 1012.1 ± 1.2 kg/m3. For the same compound, the mass density (1892.9 kPa) was 1012 ± 1.2 kg/m3, the mass density (1898.6 kPa) was 1012.1 ± 1.2 kg/m3 and the mass density (1904.4 kPa) was 1012 ± 1.2 kg/m3. It also gave a mass density (1911.3 kPa) of 1012.1 ± 1.2 kg/m3, a mass density (1916.8 kPa) of 1012.1 ± 1.2 kg/m3 and a mass density (1923.1 kPa) of 1012.1 ± 1.2 kg/m3. For the same compound, the mass density (1930 kPa) was 1012 ± 1.2 kg/m3, the mass density (1935.6 kPa) was 1012.1 ± 1.2 kg/m3 and the mass density (1941.3 kPa) was 1011.9 ± 1.2 kg/m3. It also gave a mass density (1947.2 kPa) of 1012.1 ± 1.2 kg/m3, a mass density (1954.3 kPa) of 1012 ± 1.2 kg/m3 and a mass density (1960.6 kPa) of 1012 ± 1.2 kg/m3. For the same compound, the mass density (1966.7 kPa) was 1012.1 ± 1.2 kg/m3, the mass density (1972.9 kPa) was 1012.1 ± 1.2 kg/m3 and the mass density (1980.4 kPa) was 1012.1 ± 1.2 kg/m3. For the same compound, the mass density (1986.3 kPa) was 1012.1 ± 1.2 kg/m3, the mass density (1992.3 kPa) was 1012.1 ± 1.2 kg/m3 and the mass density (1999.8 kPa) was 1012.1 ± 1.2 kg/m3. For the same compound, the mass density (2006.4 kPa) was 1012.1 ± 1.2 kg/m3, the mass density (2012.5 kPa) was 1012.1 ± 1.2 kg/m3 and the mass density (2018.9 kPa) was 1012.1 ± 1.2 kg/m3. For the same compound, the mass density (2026.4 kPa) was 1012.1 ± 1.2 kg/m3, the mass density (2033.5 kPa) was 1012.1 ± 1.2 kg/m3 and the mass density (2039.7 kPa) was 1012.1 ± 1.2 kg/m3. The mass density (2046.1 kPa) was 1012.1 ± 1.2 kg/m3, the mass density (2053.9 kPa) was 1012.3 ± 1.2 kg/m3 and the mass density (2060.5 kPa) was 1012.1 ± 1.2 kg/m3. It also gave a mass density (2068.3 kPa) of 1012.2 ± 1.2 kg/m3, a mass density (2074.9 kPa) of 1012.1 ± 1.2 kg/m3 and a mass density (2081.9 kPa) of 1012.2 ± 1.2 kg/m3. The mass density (2090 kPa) was 1012.3 ± 1.2 kg/m3, the mass density (2096.8 kPa) was 1012.1 ± 1.2 kg/m3 and the mass density (2103.5 kPa) was 1012.2 ± 1.2 kg/m3. It also gave a mass density (2109.8 kPa) of 1012.1 ± 1.2 kg/m3, a mass density (2118.5 kPa) of 1012.2 ± 1.2 kg/m3 and a mass density (2125.2 kPa) of 1012.1 ± 1.2 kg/m3. The mass density (2132.5 kPa) was 1012.3 ± 1.2 kg/m3, the mass density (2140.9 kPa) was 1012.4 ± 1.2 kg/m3 and the mass density (2147.8 kPa) was 1012.2 ± 1.2 kg/m3. For the same compound, the mass density (2155.4 kPa) was 1012.3 ± 1.2 kg/m3, the mass density (2162.7 kPa) was 1012.2 ± 1.2 kg/m3 and the mass density (2170 kPa) was 1012.3 ± 1.2 kg/m3. For the same compound, the mass density (2178.5 kPa) was 1012.3 ± 1.2 kg/m3, the mass density (2185.3 kPa) was 1012.3 ± 1.2 kg/m3 and the mass density (2192.6 kPa) was 1012.2 ± 1.2 kg/m3. It also gave a mass density (2201.3 kPa) of 1012.3 ± 1.2 kg/m3, a mass density (2208.7 kPa) of 1012.3 ± 1.2 kg/m3 and a mass density (2216.2 kPa) of 1012.1 ± 1.2 kg/m3. For the same compound, the mass density (2223.6 kPa) was 1012.2 ± 1.2 kg/m3.
